Data published in patent US20250052985A1, “SYSTEM AND METHOD FOR QUANTITATIVE PHASE IMAGING FOR MULTI-PARAMETRIC SCREENING OF TUMOR THERAPY RESPONSE” (UNIVERSITY OF UTAH RESEARCH FOUNDATION, priority 2023, published 2025).
Where “and” joins values, the source holds several entries; their conditions need not be identical. Identical values can stand only once.

How the values were obtained:
BT-474 cells [1] = test: cells; settings: for Hill Slope: BT-474, Hill fit; for ToR 20 μM: time of response at 20 μM; for EC50: Homo sapiens
Excerpt: (§1) In some embodiments, breast cancer cell lines are imaged, representing diverse clinical subtypes, summarized in Table 2 below, using a QPI microscope (FIG. 1A) based on differential phase contrast (DPC) microscopy and phase reconstruction via a QPI microscope system. DPC is used for image acquisition and phase reconstruction because DPC's flexible design may be customized for high throughput phase measurements. […] As illustrated in the embodiment of FIG. 1A, a QPI microscope system 100 conducts assays in a 96-well plate (e.g., a well-plate 105) with 6-point dose response curves and up to five therapies in triplicate including solvent controls, summarized in Table 4 below. As described below, in reference to FIG. 1A, a growth response of cells is measured noninvasively using QPI via a QPI microscope system 110 before being assayed using a CTG reader 115.
(§2) FIG. 1B illustrates a timeline plot 200 showing two plates (e.g., two, separate well-plates 105) set up in parallel to measure cell viability. With reference to FIG. 1B, two plates are set-up simultaneously for each experiment. A first plate 205 is incubated for 27 hours (h) post drug exposure prior to CTG analysis (3 h equilibration+24 h of imaging), which measures cell adenosine triphosphate (ATP) content as a surrogate for cell viability. A second plate 210 is imaged for 72 h after 3 h equilibration (e.g., 75 h) and followed by CTG. […] The imaging locations are imaged for 72 h, as shown by images 1700-1715 of FIG. 7.
(§3) In some embodiments, a dose-dependent change in growth, as indicated by a change in the rate of mass accumulation or loss, is a parameter that can be extracted from QPI dose-response data. […] Individual specific growth rate measurements are indicated by points in the distribution of the graph 1200 of FIG. 2A. Blue is indicative of the DMSO control and red is indicative of doxorubicin. The black outline is a kernel density function fit to the distribution of specific growth rates for each condition (e.g., *p<0.05, **p<0.01). In some embodiments, the average SGR of each condition is fit to a sigmoid dose-response curve using a Hill equation. For example, computed logistic fit parameters using a 4-parameter Hill model via the QPI microscope system 110 for all conditions are summarized in Tables 5-8 below. To determine if there is a response, as illustrated by FIG. 2B, the QPI microscope system 110 tests goodness of fit, adjusts for degrees of freedom using an F-test at significance p<0.01 by comparison to a flat line, as an indicator of no response. For cases with a better fit to the Hill equation, the 4-parameter Hill curve may be used by the QPI microscope system 110 to determine the EC50, a measure of sensitivity to therapy because it represents the effective concentration at which 50% of the cells respond to therapy, as illustrated by FIG. 10. […] A 4-parameter Hill curve is fit to each dose response plot to extract the depth of response and EC50 for each cell/drug pair. A flat line represents no response due to failure of the F-test to reject the null hypothesis that the logistic fit is indistinguishable from a flat line. […] Each color indicates a different drug or therapy used.

MCF-7 cells [2] = test: cells; settings: for Max Asymptote / Min Asymptote: MCF-7, 4-parameter Hill fit of mean SGR vs concentration, one line per replicate; for Hill Slope: MCF-7, Hill fit; for DoR QPI: depth of response; for ToR 20 μM: time of response at 20 μM
Excerpt: as §1, §2, §3

BT-474 cells [3] = test: CellTiter-Glo (CTG) ATP viability assay, BT-474; format: cell-based; settings: for Min Asymptote: BT-474, Hill fit of luminescence normalized to solvent control, one line per replicate; for EC50: Homo sapiens
Experimental: (§4) CTG (e.g., read by the CTG reader 115) is a cell viability assay that quantifies the amount of ATP present at the end of an experiment as an indicator of the number of live cells. The electronic controller 155 measures ATP content in each condition as a readout by a luminescent signal, which is normalized by the luminescence of the control (e.g., a control well) to determine cell viability relative to on-plate controls. In some embodiments, the CTG assay is performed by first removing 100 μL of media from each well on the well-plate 105, which is then replaced with an equal amount of CellTiter-Glo reagent (e.g., Promega, G7572). Assayed plates may be shaken at 500 RPM for 20 minutes and allowed to rest for 10 minutes. In some instances, 100 μL of volume from each well is transferred to a white 96-well plate (e.g., Perkin Elmer, 6005680). The electronic controller 155 collects luminescence data from each well using an Envision plate reader (e.g., Perkin Elmer) and normalized against the solvent control to measure ATP content. The electronic controller 155 fits a 4-parameter hill curve to the dose response to determine the EC50 and depth of response.

[4] = test system: primary tumor cells (Patient #1); test: QPI on primary cells after two-week expansion, Patient #1; format: cell-based
Experimental: In some embodiments, the QPI microscope system 110 applies multiparametric QPI to primary cells from two clinical samples stored in cell bank at, for example, the Huntsman Cancer Institute plated after thawing from liquid nitrogen and CD45+ depleted to reduce the number of immune cells, as shown in FIG. 26.
For example, the primary cells are plated as a 2D monolayer in Clever's complete medium in a 96 well plate (e.g., the well-plate 105) and are allowed to acclimate to cell culture conditions for 18 h prior to dosing with treatments assigned to each patient by a physician. […] The image 3600 is a QPI image of primary cells from a direct from thaw patient derived sample. […] The graph 3610 is a histogram of cell mass used to computationally filter, using the electronic controller 155, for low mass cells (shown in red in the image 3600 and the graph 3605). By using a cutoff between the peaks at, for example, 72 pg, low mass cells can be isolated that are not growing and remove such cells from analysis. […] Using this cutoff, the electronic controller 155 measures the dose response for cells in each condition to determine the EC50 and DoR for each condition studied for the primary cells, as shown in the graph 3615. The graph 3615 is a dose response plot for primary cells treated with therapies assigned to the patient by a physician. […] In some embodiments, the electronic controller 155 determines a drug response in cells from patient derived samples. For example, the electronic controller 155 determines the drug response in therapy treatment samples from patient derived samples.
In some embodiments, both samples are expanded from primary cells in 2D culture using optimized ex vivo culture conditions for 2 weeks, changing media every 3 days to further purify the tumor cells, as shown in a workflow 3700 of FIG. 27.

MDA-MB-231 cells = test: Quantitative phase imaging (QPI) growth response, MDA-MB-231; format: cell-based; set-up: DoR QPI: scale not given here; ToR 20 μM: unit not given here
Excerpt: as §1, §2, §3

MCF-7 cells [5] = test: CellTiter-Glo (CTG) ATP viability assay, MCF-7; format: cell-based
Experimental: as §4

[6] = 72 h QPI, BT-474, 4-parameter Hill fit of mean SGR vs concentration, one line per replicate
[7] = 72 h QPI, MDA-MB-231, 4-parameter Hill fit of mean SGR vs concentration, one line per replicate

CS(=O)(=O)CCNCc1ccc(-c2ccc3ncnc(Nc4ccc(OCc5cccc(F)c5)c(Cl)c4)c3c2)o1 [Lapatinib]
type of response (cytostatic/cytotoxic) (BT-474 cells [1]): cytotoxic response | Max Asymptote (BT-474 cells [1]; 24 h QPI, BT-474, 4-parameter Hill fit of mean SGR vs concentration, one line per replicate): 0.009114 and 0.01239 and 0.01012 | Hill Slope (BT-474 cells [1]; 24 h QPI): 1.0728 and 1.0622 and 0.7683 | Max Asymptote (BT-474 cells [1]; [6]): −0.005233 and −0.002968 and −0.002717 | Min Asymptote (BT-474 cells [1]; [6]): 0.008681 and 0.009519 and 0.009646 | Hill Slope (BT-474 cells [1]; 72 h QPI): 0.8265 and 1.1159 and 1.0735 | growth rate and heterogeneity as concentration increases (BT-474 cells [1]; BT-474, FIG. 22): decrease in growth rate and heterogeneity | DoR QPI (BT-474 cells [1]; BT-474 cell line, depth of response, QPI): 1.4 | ToR 20 μM (BT-474 cells [1]; BT-474 cell line): −1.0616 | ToR faster than in MCF-7 (BT-474 cells [1]; BT-474 vs MCF-7): 60 h | decrease in heterogeneity relative to MCF-7 (BT-474 cells [1]; BT-474 vs MCF-7): 30% | EC50 (BT-474 cells [1]; BT-474, BT-474, QPI): ~1500 nM | EC50 (BT-474 cells [1]; BT-474, read-out: EC50, QPI, BT-474 cell line, QPI growth rate): 1600 nM | EC50 (BT-474 cells [1]; BT-474, read-out: EC50, SD, BT-474 cell line, EC50 of the standard deviation): 1650 nM | type of response (cytostatic/cytotoxic) (MCF-7 cells [2]): cytostatic response | Max Asymptote (MCF-7 cells [2]; 24 h QPI): 0.02919 | Min Asymptote (MCF-7 cells [2]; 24 h QPI): 0.0206 | Hill Slope (MCF-7 cells [2]; 24 h QPI): 1.4871 | Max Asymptote (MCF-7 cells [2]; 72 h QPI): 0.01659 | Min Asymptote (MCF-7 cells [2]; 72 h QPI): 0.02661 | Hill Slope (MCF-7 cells [2]; 72 h QPI): 1.4826 | EC50 (MCF-7 cells [2]; Homo sapiens, MCF7, 24 h, read-out: log10(EC50), 24 h QPI, MCF-7, Hill fit (converted), EC50 in μM per Table 1): 1.92 µM | EC50 (MCF-7 cells [2]; Homo sapiens, MCF7, 72 h, read-out: log10(EC50), 72 h QPI, MCF-7, Hill fit (converted), EC50 in μM per Table 1): 1.8 µM | EC50 (MCF-7 cells [2]; Homo sapiens, MCF7, MCF-7, QPI): ~1.5 µM | EC50 (MCF-7 cells [2]; Homo sapiens, MCF7, read-out: EC50, QPI, MCF-7 cell line, QPI growth rate): 1.5 µM | DoR QPI (MCF-7 cells [2]; MCF-7 cell line): 0.4 | ToR 20 μM (MCF-7 cells [2]; MCF-7 cell line): 38.2 | Hill Slope (BT-474 cells [3]; 24 h CTG, BT-474, Hill fit): 0.4575 | Min Asymptote (BT-474 cells [3]; 24 h CTG): 0.2926 | Hill Slope (BT-474 cells [3]; 72 h CTG, BT-474, Hill fit): 0.6736 and 1.021 | log10(EC50) (BT-474 cells [3]; 72 h CTG, BT-474, Hill fit): 0.04318 | Min Asymptote (BT-474 cells [3]; 72 h CTG): 0.3102 and 0.4062 (2×) | DoR CTG (BT-474 cells [3]; BT-474 cell line, depth of response, CellTiter-Glo): 0.6 | EC50 (BT-474 cells [3]; BT-474, 24 h, 24 h CTG, BT-474, Hill fit, read-out: log10(EC50) (converted)): 165000 nM | EC50 (BT-474 cells [3]; BT-474, BT-474 cell line, CellTiter-Glo, read-out: EC50, CTG): 1700 nM

C=C1C[C@@H]2CC[C@@]34C[C@H]5O[C@H]6[C@@H](O3)[C@H]3O[C@H](CC[C@@H]3O[C@H]6[C@H]5O4)CC(=O)C[C@@H]3[C@@H](OC)[C@@H](C[C@H](O)CN)O[C@H]3C[C@H]3O[C@@H](CC[C@@H]1O2)C[C@@H](C)C3=C [eribulin]
overall response relative to doxorubicin or gemcitabine ([4]; Patient #1, concentration just above the EC50, normalized mass over time): lesser overall response | DoR relative to the other therapies tested ([4]; Patient #1, dose response plots): lower DoR | growth rate after the first day ([4]; Patient #1, rest of the experiment): approximately 0.0012 h−1

N.N.O=C([O-])C1(C(=O)[O-])CCC1.[Pt+2] [Carboplatin]
ToR 20 μM (BT-474 cells [1]; BT-474 cell line): 38.7 | Max Asymptote (MCF-7 cells [2]; 72 h QPI): 0.007047 and 0.01142 | Min Asymptote (MCF-7 cells [2]; 72 h QPI): 0.01994 and 0.02292 | Hill Slope (MCF-7 cells [2]; 72 h QPI): 3.7715 and 2.34 | DoR QPI (MCF-7 cells [2]; MCF-7 cell line): 0.6 | ToR 20 μM (MCF-7 cells [2]; MCF-7 cell line): 18.1 | EC50 (MCF-7 cells [2]; read-out: EC50, QPI, MCF-7 cell line, QPI growth rate): 14.2 µM | Max Asymptote (MDA-MB-231 cells; [7]): 0.01609 and 0.02303 and 0.02092 | Min Asymptote (MDA-MB-231 cells; [7]): 0.02861 and 0.03045 and 0.02714 | growth rate and heterogeneity over time (MDA-MB-231 cells; MDA-MB-231, 20 μM): decrease in growth rate with little effect on heterogeneity relative to the control | growth rate and heterogeneity as concentration increases (MDA-MB-231 cells; MDA-MB-231, FIG. 22): decrease in growth rate and heterogencity simultaneously | EC50 (MDA-MB-231 cells; MDA-MB-231 cell line, QPI growth rate, read-out: EC50, QPI): 9100 nM | DoR QPI (MDA-MB-231 cells; MDA-MB-231 cell line, depth of response, QPI): 0.3 | ToR 20 μM (MDA-MB-231 cells; MDA-MB-231 cell line, time of response at 20 μM): 18.3 | Hill Slope (MCF-7 cells [5]; 72 h CTG, MCF-7, Hill fit): 3.126 and 5.114 | log10(EC50) (MCF-7 cells [5]; 72 h CTG, MCF-7, Hill fit): −1.201 and −1.172 | Min Asymptote (MCF-7 cells [5]; 72 h CTG, MCF-7, Hill fit of luminescence normalized to solvent control, one line per replicate): 0.5048 (2×) and 0.6498 | EC50 (MCF-7 cells [5]; MCF-7 cell line, CellTiter-Glo, read-out: EC50, CTG (converted)): 15500 nM | DoR CTG (MCF-7 cells [5]; MCF-7 cell line, depth of response, CellTiter-Glo): 0.4

Nc1ccn([C@@H]2O[C@H](CO)[C@@H](O)C2(F)F)c(=O)n1 [gemcitabine]
EC50 compared with eribulin ([4]; Patient #1): lower EC50 than eribulin
